# From patent publication US20190336496A1, “SELECTIVE BCL-2 INHIBITORS IN COMBINATION WITH AN ANTI-PD-1 OR AN ANTI-PD-L1 ANTIBODY FOR THE TREATMENT OF CANCERS” (AbbVie Inc., priority 2018, published 2019)
# Assays:
# [1] = test system: CMV-positive human PBMCs; assay: CMV recall assay using human CMV+ PBMC; assay type: cell-based
# Description: The cytomegalovirus (CMV) recall assay was used to assess the functional effects of Compound (I) on antigen-specific immune cells. This assay used CMV antigen to stimulate pre-existing memory T-cells in CMV-positive human PBMCs. Human CMV-positive PBMCs and CMV antigen were purchased from Astarte Biologics (Cat.No:1001 and Cat. No. 1004, respectively). To measure whether T cells from CMV-positive donor are functionally active, 2×10^5 CMV-positive PBMCs were stimulated with 0.05 μg/mL of CMV antigen and at the same time venetoclax was added. The cells were cultured in Roswell Park Memorial Institute (RPMI) media supplemented with 10% fetal bovine serum (FBS). On day 4, cells were quickly re-stimulated with phorbol 12-myristate-13-acetate (PMA, 0.08 μM)/ionomycin (1.3 μM) and treated with brefeldin A (5 μg/mL) for 4 hours. Cells were stained with the following commercial antibodies: CD3, CD4, IFNγ, and IL-2 (all from Biolegend), as well as with the Zombie Green™ fixable viability kit. Cells were analyzed using an LSRFortessa™ X-20 instrument (BD Biosciences).
# The remaining live cells were gated by CD3 and CD4 expression whereas CD3^+CD4^+ cells were considered as CD4^+ T-cells and CD3^+CD4^− cells were considered as CD8^+ T-cells. Production of IFNγ and IL-2 cytokines by CD8+ T-cells was assessed by flow cytometry (FIG. 10B, 10C).
# [2] = test system: MC38 tumors; assay: MC38 colon carcinoma syngeneic model, immune competent C57BL/6 mice; assay type: in vivo, mouse; conditions: MC38 in C57BL/6 mice; venetoclax 50 mg/kg/day orally 14 days; antibody 10 mg/kg IP every 4 days, 3 times; day 25
# Description: BALB/c, C57BL/6, CB6F1 (C57BL/6 bred with BALB/c) and SCID mice were obtained from Charles River (Wilmington, Mass.).
# MC38, mouse colon carcinoma cell line was obtained from National Cancer Institute (NCI).
# Compound (I),venetoclax, was formulated in 10% ethanol+30% PEG 400+60% Phosal® 50PG. Venetoclax was administered orally once a day for 14 days at 50 mg/kg/day.
# 1×10^5 CT26, EMT6 or MC38 cells were subcutaneously injected with Matrigel into the flanks of BALB/c, CB6F1 or C57BL/6 mice, respectively. Seven days later, mice were randomized to treatment groups of vehicle, venetoclax, anti-PD-1/PD-L1 or the combination of venetoclax and anti-PD-1/PD-L1. Tumor volume was determined via measurements of the length (L) and width (W) of the tumor with electronic calipers and the volume was calculated according to the following equation: V=L×W2/2 using Study Director Version 2.1.11 (Studylog Systems Inc., South San Francisco). Complete response (CR) was defined as reduction in tumor volume to ≤25 mm^3 over at least 3 successive measurements.
# [3] = test system: CT26, MC38 and EMT6 cells; assay: In vitro sensitivity of CT26, EMT6 and MC38 cells (FIG. 1); assay type: cell-based, mouse; conditions: increasing doses, CellTiter-Glo after 72 hours
# Description: FIG. 1: In vitro sensitivity of CT26, EMT6 and MC38 cells to Compound (I). […] CT26, MC38 and EMT6 cells were incubated with increasing doses of Compound (I) and viability was measured using CellTiter®-Glo (Promega) after 72 hours as described in Example 1.
# (§1) Cancer Immunol Res. 5; 29-41 (2017)). Any reduction in checkpoint inhibitor-mediated tumor growth inhibition or response rates caused by the addition of venetoclax would indicate potential antagonism. The panel was composed of syngeneic models of solid tumors: CT26, MC38 (both colorectal carcinoma) and EMT6 (breast cancer). […] Likewise, only modest anti-tumor activity could be observed in these models with venetoclax alone, dosed daily at 50 mg/kg for 14 days (FIG. 3, FIG. 6, FIGS. 12A, 12B, 12C, and 12D). […] Rather, it enhanced their efficacy in certain cases.
# [4] = test system: mouse lymphocytes; assay: In vivo sensitivity of lymphocytes (flow cytometry)
# Description: FIG. 2: In vivo sensitivity of lymphocytes to Compound (I). […] Descriptions of each sub-section are as follows: (A) In vivo sensitivity of lymphocytes following one week of treatment with Compound (I). Naïve CB6F1 mice were treated daily with Compound (I) (50/mg/kg) for one week. Lymph nodes were collected, and immune cells were quantified by flow cytometry; (B) In vivo sensitivity of splenocytes following one week of treatment with Compound (I). Naïve C57BL/6 mice were treated daily with Compound (I) (50/mg/kg) for one week. Spleens were collected and immune cells were quantified by flow cytometry. Mouse splenocytes, including B-cells, CD8+ T-cells, and CD4+ T-cells, were sensitive to in vivo treatment with Compound (I), as described in Example 1; (C) In vivo sensitivity of T-cell subsets in splenocytes following one week of treatment with Compound (I). CD4+ naïve T-cells (TN) and CD8+ central memory T-cells in the spleen from C57BL/6 mice were slightly sensitive to in vivo Compound (I) treatment while the proportion of CD4+ and CD8+ effector memory T-cells (TEM) was increasing; and (D) In vivo sensitivity of T-cell subsets in the blood following one week of treatment with Compound (I). The proportion of CD4+ and CD8+ effector memory T cells (TEM) increased in the blood from C57BL/6 mice following in vivo Compound (I) treatment.
# as §1
# [5] = test system: CMV-positive human PBMCs; assay: CMV recall assay in the presence of anti-PD-1 antibody; assay type: cell-based; conditions: 1 μg/mL CMV antigen, day 4
# Description: The cytomegalovirus (CMV) recall assay was used assess the functional effects of venetoclax on antigen-experienced immune cells and to evaluate the effect of venetoclax on anti-PD1 immune response. This assay used cytomegalovirus (CMV) antigen to stimulate pre-existing memory T-cells in CMV-positive human PBMCs. Human CMV-positive PBMCs (Cat.No:1001; Lot. No. 3634JY17) and CMV antigen (Cat. No. 1004) were purchased from Astarte Biologics. 2×10^5 CMV-positive PBMCs were stimulated with 1 μg/mL of CMV antigen with or without inhibitors +/−anti-PD-1 (nivolumab) in Roswell Park Memorial Institute (RPMI) media supplemented with 10% fetal bovine serum (FBS) and 1% antibiotics. On day 4, secreted IFNγ was measured by ELISA and the live cells were analyzed using a live dead stain, Zombie Green™ (BioLegend®) using LSRFortessa™ X-20 instrument (BD Biosciences). Venetoclax reduced the percentage of live cells compared to DMSO as single agent or in combination with nivolumab (FIG. 10D).
# [6] = test system: mouse splenocytes; assay: In vitro sensitivity of mouse splenocytes; assay type: cell-based; conditions: BALB/c and C57BL/6 splenocytes, 24 hours
# Description: Mouse splenocytes were plated at a density of 5×10^5 cells per well in a 48-well plate with 30 U/mL IL-2. Cells were cultured for 24 hours and then increasing concentrations of venetoclax were added for an additional 24 hours (DMSO was used as control). Cells were harvested, stained and subjected to flow cytometry analysis with an LSRFortessa™ X-20 instrument (BD Biosciences).
# To further explore the mechanism for immune modulation in mice, splenocytes from BALB/c and C57BL/6 mice were treated in vitro with venetoclax for 24 hours. The two types of memory T-cells in mice are central memory (TCM; […]) and effector memory T-cells (TEM; […]). While naïve T-cells (CD62L^+CD44^−) were sensitive to venetoclax, effector memory T-cells were not and, importantly, their proportion increased relative to surviving T-cells with increased concentrations of venetoclax. Central memory T-cells were not affected by venetoclax under these experimental conditions (FIG. 9).
smiles,measurement,setting,value
"CC1(C)CCC(CN2CCN(c3ccc(C(=O)NS(=O)(=O)c4ccc(NCC5CCOCC5)c([N+](=O)[O-])c4)c(Oc4cnc5[nH]ccc5c4)c3)CC2)=C(c2ccc(Cl)cc2)C1 [Compound (I), venetoclax]",total number of lymphocytes,"[1]; 0.05 μg/mL CMV antigen, day 4",reduced the total number of lymphocytes in a dose-dependent manner
same,"remaining T-cell activation, MFI of IFNγ and IL-2 (CD8+ T-cells)","[1]; CMV antigen, re-stimulated with PMA/ionomycin on day 4",dose-dependent inversely proportional increase
same,tumor growth inhibition (TGI),[2],41%
same,in vitro sensitivity (viability),[3],resistant
same,in vitro sensitivity (viability),[3]; listed as venetoclax,None of these tumor cell lines exhibited sensitivity
same,"sensitivity of lymphocytes in lymph node, spleen and blood (B-cells, CD8+ T-cells, CD4+ T-cells)","[4]; daily 50/mg/kg for one week, flow cytometry",sensitive
same,murine T-cell populations in vivo,[4]; mice treated daily at 50 mg/kg for one week,clear reductions
same,"proportion of memory cells, specifically effector memory cells","[4]; spleen and blood of C57BL/6 mice, one week of treatment",increase
same,IFNγ secretion from antigen specific CMV+ T cells (ELISA),[5],remained comparable to DMSO control
same,percentage of live cells compared to DMSO,[5],reduced
same,central memory T-cells,[6],not affected
same,sensitivity of naïve T-cells,[6],sensitive
same,proportion of effector memory T-cells relative to surviving T-cells,[6]; increased concentrations,increased
